Where two headings read alike, the source gives them in different places.
Experiments:
[1] = system: HIV-1 virus; assay: Infectivity of treated virions, PCR assay for intracellularly-synthesized viral RNA; type: cell-based
Source text: The treated virions can also be tested for infectivity. The virions are suspended in media (rather than solubilized) and added to target cells. The cultures are then examined to determine whether the virions are still active. To determine whether the treated virus particles are active, the cells are monitored for the presence of intracellularly-synthesized viral RNA using, for example, the polymerase chain reaction (PCR) (Rice (1993) Proc. Natl. Acad. Sci. USA 90:9721; Turpin (1996) J. Virol. 70:6180). Alternatively, cytoprotection assays can be used (Weislow (1993) J. Natl. Cancer Inst. 81:577). An example of a compound which can be used as a control in the gel mobility shift assay is azodicarbonamide (ADA), a compound which is commercially available from the Aldrich Chemical Company (Milwaukee, Wis.).

[2] = system: HIV-1 144-44 (mutation L10I/M46I/I54V/L63P/A71V/V82A/L90M); assay: XTT assay against drug resistant mutant HIV-1 144-44 in PBMCs; type: cell-based; conditions: HIV-1 144-44/PBMCs
Source text: (§1) One exemplary means to determine antiviral activity is with CEM-SS cells and virus (e.g., HIV-1RF) (MOI=0.01) using the XTT {2,3-bis[2-methoxy-4-nitro-5-sulfophenyl]-5- -[(phenylamino)carbonyl]-2H-tetrazolium hydroxide} cytoprotection assay, as described by Rice (1993) Proc. Natl. Acad. Sci. USA 90: 9721-9724, and Rice (1997) Antimicrob. Agents & Chemother. […] Briefly, cells are infected with HIV-1RF (or other virus to be tested) in the presence of various dilutions of test compounds and controls. The cultures are incubated for seven days. […] The cell death is measured by XTT dye reduction. XTT is a soluble tetrazolium dye that measures mitochondrial energy output, similar to MTT. […] Individual assays are done in duplicate using a sister plate method. […] Compound numbers therein refer to the numbers used in FIG. 1.

[3] = system: PBMCs; assay: XTT assay, cytotoxicity, HIV-1 144-44/PBMCs section; type: cell-based
Source text: as §1

[4] = system: HIV-1 1026040 (mutation V32I/M46I/L63P/L90M); assay: XTT assay against drug resistant mutant HIV-1 1026040; type: cell-based
Source text: as §1

[5] = system: cells; assay: XTT assay, cytotoxicity, HIV-1 1026040 section; type: cell-based
Source text: as §1

[6] = system: HIV-1 (RoJo); type: cell-based; conditions: HIV-1 (RoJo/PBMCs)
Source text: as §1

[7] = system: PBMCs; assay: XTT assay, cytotoxicity, HIV-1 (RoJo/PBMCs) section; type: cell-based
Source text: as §1

[8] = system: HIV-2 (Rod); assay: XTT cytoprotection assay, HIV-2 (Rod/CEM-SS); type: cell-based
Source text: as §1

[9] = system: CEM-SS; assay: XTT assay, cytotoxicity, HIV-2 (Rod/CEM-SS) section; type: cell-based
Source text: as §1

[10] = system: SIV (Mac 251); assay: XTT cytoprotection assay, SIV (Mac 251); type: cell-based
Source text: as §1

[11] = system: cells; assay: XTT assay, cytotoxicity, SIV (Mac 251) section; type: cell-based
Source text: as §1

[12] = system: HIV-1RF; assay: XTT cytoprotection assay, CEM-SS cells infected with HIV-1RF; type: cell-based; conditions: HIV-1RF, CEM-SS cells; for EC50: read-out: EC50 (50% cytoprotection), seven days, XTT
Source text: (§2) One exemplary means to determine antiviral activity is with CEM-SS cells and virus (e.g., HIV-1RF) (MOI=0.01) using the XTT (2,3-bis[2-methoxy-4-nitro-5-sulfophenyl]-5-[(phenylamino)carbonyl]-2H-tetrazolium hydroxide) cytoprotection assay, as described by Rice (1993) PNAS 90:9721-9724, and Rice (1997) Antimicrob. Agents Chemother. […] Briefly, cells are infected with HIV-1RF (or other virus to be tested) in the presence of various dilutions of test compounds or control compounds. The cultures are incubated for seven days. […] The cell death is measured by XTT dye reduction. XTT is a soluble tetrazolium dye that measures mitochondrial energy output, similar to MTT. […] Individual assays are done in duplicate using a sister plate method.
as §1

[13] = XTT assay, cytotoxicity (cellular growth inhibition) in CEM-SS cells; type: cell-based; conditions: human
Source text: as §2, §1

[14] = system: HIV p24; assay: p24 inhibition ELISA assay, HIV transgenic mouse model spleen cells; type: cell-based; conditions: for EC50: Human immunodeficiency virus 1; for Therapeutic Index: p24 inhibition ELISA, HIV transgenic mouse model spleen cells
Source text: (§3) One of the advantages of the compounds of the present invention over previously identified antiretroviral agents is their increased hydrolytic stability, which improves their biological activity and reduces the amount of compound that must be delivered to a treated subject to produce the desired effect. […] A PATE compound having the following structure is included: […]

[15] = system: HIV transgenic mouse model spleen cells; assay: Cytotoxicity, HIV transgenic mouse model spleen cells; type: cell-based
Source text: as §3

[16] = Hydrolysis assay (relative rates of hydrolysis); type: in vitro ADME
Source text: as §3

[17] = system: CEM-SS cells; assay: XTT assay, cytotoxicity (cellular growth inhibition) in CEM-SS cells; type: cell-based; conditions: read-out: IC50 (50% cytotoxicity)
Source text: as §2, §1

[18] = Human immunodeficiency virus 1, 168 h

Compound	Therapeutic Index [12]	EC50 [12, 18] [µM]	IC50 at 7 days [13] [µM]	other results
NC(=O)N=NC(N)=O [ADA, azodicarbonamide]	–	–	–	Inactivation of HIV-1 virus [1]: inactivates HIV-1 virus
Cc1cn([C@H]2C[C@H](N=[N+]=[N-])[C@@H](CO)O2)c(=O)[nH]c1=O [AZT, 3′-azido-2′, 3′-dideoxythymidine, reference compound]	–	–	–	EC50 [2]: 1.3 µM; TI [2]: >153; IC50 [3]: > 200 µM; EC50 [4]: 0.006 µM; TI [4]: >167; IC50 [5]: > 1 µM; EC50 [6]: 0.01 µM; IC50 [7]: > 4 µM; EC50 [8]: 0.017 µM; IC50 [9]: > 1 µM; EC50 [10]: 0.02 µM; IC50 [11]: > 1 µM
COc1ccc(C(=O)Sc2ccccc2C(=O)NCCC(N)=O)cc1OC [Compound 11]	24	6.9	165	EC50 [14]: 3.6 µM; Therapeutic Index [14]: >69; IC50 [15]: > 250 µM; half-life [16]: 4.07 h
COc1cc(OC)cc(C(=O)Sc2ccccc2C(=O)NCCC(N)=O)c1 [Compound 12]	13	8.1	102	EC50 [14]: 3.5 µM; Therapeutic Index [14]: 39; IC50 [15]: 136 µM; half-life [16]: 7.75 h
Cc1ccccc1C(=O)Sc1ccccc1C(=O)NCCC(N)=O [Compound 22]	2.3	9.7	22	EC50 [14]: 2.6 µM; Therapeutic Index [14]: 23; IC50 [15]: 59 µM; half-life [16]: 6.8 h
CC(C)(C)c1ccc(C(=O)Sc2ccccc2C(=O)NCCC(N)=O)cc1 [Compound 23]	24	4.5	107	EC50 [14]: 2.2 µM; Therapeutic Index [14]: 56; IC50 [15]: 123 µM; half-life [16]: > 8.33 h
Cc1cccc(C(=O)NCCC(N)=O)c1SC(=O)c1ccccc1 [Compound 61]	–	–	–	EC50 [14]: 15.7 µM; half-life [16]: 7.02 h
CCNC(=O)Sc1ccccc1C(=O)N[C@H](C)C(N)=O [Compound 114]	203	0.42	86	–
CCOC(=O)CCNC(=O)Sc1ccccc1C(=O)NCCC(N)=O [Compound 115]	196	0.59	117	–
CCOC(=O)CNC(=O)Sc1ccccc1C(=O)N[C@@H](C)C(N)=O [Compound 116]	147	0.53	77.6	–
CCCCNC(=O)Sc1ccccc1C(=O)N[C@H](C)C(N)=O [Compound 117]	64	0.51	32.2	–
CCCCNC(=O)Sc1ccccc1C(=O)NCCC(N)=O [Compound 118]	74	0.53	38.7	–
CCCCCNC(=O)Sc1ccccc1C(=O)N[C@H](C)C(N)=O [Compound 119]	179	0.3	54.4	–
CCCCCCNC(=O)Sc1ccccc1C(=O)N[C@H](C)C(N)=O [Compound 121]	107	0.76	81	–
NC(=O)C1CN1C(=O)c1ccccc1SC(=O)NC1CCCCC1 (centres unmarked) [Compound 129]	–	–	–	EC50 [12]: 0.55 µM; EC50 [2]: 0.17 µM; TI [2]: >1168; IC50 [3]: > 200 µM; EC50 [4]: 4 µM; TI [4]: >51; IC50 [5]: > 200 µM; EC50 [6]: 3.8 µM; IC50 [7]: 184 µM; EC50 [8]: 0.104 µM; IC50 [9]: 6.54 µM; EC50 [10]: 0.29 µM; IC50 [11]: 21.8 µM
CCCCNC(=O)Sc1ccccc1C(=O)NCCS(N)(=O)=O [Compound 130]	0.12	304	37	–
CC(C)(C)CC(C)(C)NC(=O)Sc1ccccc1C(=O)N1CC1C(N)=O (centres unmarked) [Compound 131]	80	–	–	EC50 [12]: 0.45 µM; IC50 [17]: 35.8 µM
CSC(=N)Sc1ccccc1C(=O)N[C@@H](C)C(N)=O [Compound 136]	28.6	0.7	20	–
CSC(=N)Sc1ccccc1C(=O)NCCC(N)=O [Compound 137]	28.2	0.71	20	–
CSC(=N)Sc1ccccc1C(=O)NCC(N)=O [Compound 138]	31.7	0.63	20	–
CSC(=N)Sc1ccccc1C(=O)N[C@H](C)C(N)=O [Compound 139]	37.7	0.53	20	–
CC(C)(C)NC(=O)Sc1ccc(Cl)cc1C(=O)NCCC(N)=O [Compound 140]	7.1	1.6	11.3	–
CC(C)COC(=O)Sc1ccc(Cl)cc1C(=O)NCCC(N)=O [Compound 141]	17.7	1.13	20	–
CC(C)(C)NC(=O)Sc1ccccc1C(=O)NCC(N)=O [Compound 142]	2.9	6.9	20	–

Reference: patent US7528274B2, “Acylthiols and component thiol compositions as anti-HIV and anti-retroviral agents” (The United States of America as represented by the …, priority 2001, dated 2009)
